Test results taken from BindingDB's records for patent US20240025919 (Genentech, 2024).

How the values were obtained:
GTPase KRas = GTPase KRas (Homo sapiens, UniProt P01116); assay: KRAS WT Biochemical Assay
Description: Biochemical compound potencies are assessed by evaluating inhibition of SOS1-mediated nucleotide exchange in KRAS WT. In this assay, the SOS1-promoted exchange of fluorescently-labeled GDP (BOPIDY-GDP) is monitored by time-resolved fluorescence resonance energy transfer (TR-FRET). Compounds solubilized in DMSO are dispensed as concentration series into 384-well white assay plates. A preformed complex of 0.06 nM biotin-tagged recombinant human KRAS WT, 15 nM GDP and 0.06 nM terbium-labeled streptavidin (CisBIO) prepared in 10 uL/well assay buffer (20 mM HEPES, pH 7.5, 50 mM NaCl, 10 mM MgCl2, 0.01% Tween-20 and 1 mM dithiothreitol) is added and allowed to incubate for 10-minutes at room temperature. The reaction is initiated with the addition of 5 uL 300 nM recombinant human SOS1 and 300 nM BODIPY-GDP in assay buffer. After a 120-minute incubation, the fluorescence is measured with excitation at 337 nm and emission at 490 and 520 nm.

GTPase KRas [G12D] = GTPase KRas [G12D] (Homo sapiens, UniProt P01116, G12D); assay: KRAS G12D LoEnz Biochemical Assay
Chain of GTPase KRas [G12D] (P01116 whole entry G12D): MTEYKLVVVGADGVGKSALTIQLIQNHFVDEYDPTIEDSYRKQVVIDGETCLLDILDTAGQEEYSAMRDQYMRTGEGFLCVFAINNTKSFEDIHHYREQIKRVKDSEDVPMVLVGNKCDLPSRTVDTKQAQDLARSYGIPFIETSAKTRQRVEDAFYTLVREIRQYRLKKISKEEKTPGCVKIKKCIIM
Description: Biochemical compound potencies are assessed by evaluating inhibition of SOS1I-mediated nucleotide exchange in KRAS […]. In this assay, the SOS1-promoted exchange of fluorescently-labeled GDP (BOPIDY-GDP) is monitored by time-resolved fluorescence resonance energy transfer (TR-FRET). Compounds solubilized in DMS0 are dispensed as concentration series into 384-well white assay plates. A preformed complex of biotin-tagged recombinant human KRAS (0.06 nM mutant G1 2D) and 0.06 nM terbium-labeled streptavidin (CisBIO) prepared in 10 uL/well assay buffer (20 mM HEPES, pH 7.5, 50 mM NaCl, 10 mMMMgCl2, 0.0100 Tween-20 and 1 mM dithiothreitol) is added and allowed to incubate for 10-minutes at room temperature. The reaction is initiated with the addition of 5 uL 300 nM recombinant human SOS1 and 300 nM BODIPY-GDP in assay buffer. After a 120-minute incubation, the fluorescence is measured with excitation at 337 nm and emission at 490 and 520 nm. The TR-FRET ratio is determined as the fluorescence at 520 nm divided by the fluorescence at 490 nm multiplied by 10,000. The results are normalized to percent inhibition based on control samples: DMSO (0% inhibition) and control compound at a concentration that inhibits completely (100% inhibition).

Chain of GTPase KRas (P01116 whole entry): as the sequence (P01116 whole entry G12D) above, with D12G counted along it

| SMILES | IC50 (GTPase KRas) [nM] | IC50 (GTPase KRas [G12D]) [nM] |
| --- | --- | --- |
| Fc1c(-c2cccc3cccc(Cl)c23)nc2c3c(nc(OC[C@@]45CCCN4C[C@H](F)C5)nc13)N1C[C@H]3CC[C@H](N3)[C@H]1CO2 [US20240025919, Compound 2] | 922 | 15.2 |
| C[C@@H]1Oc2nc(-c3cc(N)c(F)c(F)c3CC(F)F)c(F)c3cc(OC[C@@H]4CC[C@H]5COCCN54)nc(c23)N2C[C@H]3CC[C@H](N3)[C@@H]12 [US20240025919, Compound 158] |  | 3.39 |
| C#Cc1c(F)ccc2cccc(-c3nc4c5c(nc(OCC67CCN6CC(F)(F)C7)nc5c3F)N3C[C@H]5CC[C@H](N5)[C@H]3[C@H](C)O4)c12 (some centres undefined) [US20240025919, Compound 22] |  | 2.99 |
